Like-named read-outs stand apart in the source and are kept apart here.
How the values were obtained:
[1] = system: chymotrypsin; test: Selectivity versus serine proteases: chymotrypsin; format: biochemical; details: 100 μM
[2] = biological target: cruzain, from T. cruzi (Trypanosoma cruzi, UniProt P25779); test: Inhibition of cruzain, as for cathepsin L; format: biochemical; details: values marked *
In short: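 Run as for cathepsin L with 1 nM cruzain in 50 mM phosphate pH […], 2.5 mM DTT, 2.5 mM EDTA, 5 μM Z-Phe-Arg-AMC, at 25 °C, inhibitors 30-0.001 μM; fluorescence (ex 380/em 460 nm) followed continuously. kobs fitted from progress curves and kobs/[I] reported; selected compounds gave kirr, KI, kirr/KI, with KI corrected by (1+[S]/Km).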

[3] = system: human malarial parasite Plasmodium falciparum; test: In vitro protease activity of malarial parasite, substrate Z-Phe-Arg-AMC; format: biochemical; details: read-out: P. falciparum IC50 (human)
From the text: (§1) The following table summarizes the comparative IC50 values for selected cysteine protease inhibitors against the human malarial parasite Plasmodium falciparum and the mouse malarial parasite Plasmodium vinckei. The substrate used to measure in vitro protease activity was Z-Phe-Arg-AMC.

[4] = system: mouse malarial parasite Plasmodium vinckei; test: as above; format: biochemical; details: read-out: P. vinckei IC50 (murine)
From the text: as §1

[5] = biological target: T1, Cloned cathepsin S (Homo sapiens, UniProt P25774); test: Inhibition of cathepsin S, Z-Val-Val-Arg-AMC fluorescence progress curves; format: biochemical; details: for kobs /[I]* (approximate second-order inactivation constant): values marked *, 25° C., pH 6.5
T1 construct: made in house
In short: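 Progress curves at 25 °C in 100 mM phosphate pH 6.5, 2.5 mM DTT, 2.5 mM EDTA, 0.01% Triton, enzyme <1 nM, 10 μM substrate, inhibitors 30-0.001 μM; AMC fluorescence ex 380/em 460 nm. kobs from nonlinear fits gave kobs/[I]; selected compounds yielded kirr, KI (substrate-corrected), kirr/KI.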

[6] = Stability of selected inhibitors toward glutathione (Ellmans reagent); format: physicochemical; details: inhibitor 5 mM, GSH 0.3 mM
Protocol: The inhibitors (5 mM) were incubated with glutathione (GSH) (0.3 mM) in phosphate buffer (50 mM) at pH=6.2 containing 15% DMF at 20° C. Periodically, 50 μL samples were added to 1 mL of buffer and treated with 10 μL of 30 mM Ellmans reagent and the absorbance measured at 412 nm.

[7] = biological target: T2, Cathepsin L from rat liver (Rattus norvegicus, UniProt P07154); test: Inhibition of cathepsin L, Z-Phe-Arg-AMC fluorescence progress curves; format: biochemical; details: for kobs /[I]* (approximate second-order inactivation constant): values marked *
T2 construct: Cathepsin L from rat liver; from tissue; host or cells: rat liver
In short: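 Progress curves of AMC release (380/460 nm) over at least 3 inactivation half-times were fitted to kobs, reported as kobs/[I] or, via 1/[I] vs 1/kobs, kirr, KI (substrate-corrected) and kirr/KI.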

[8] = biological target: T3, Cathepsin B from human placenta (Homo sapiens, UniProt P07858); test: Inhibition of cathepsin B, Z-Arg-Arg-AMC fluorescence progress curves; format: biochemical; details: for Ki: corrected for substrate; for k/KI (kirr/KI): values without asterisk; for k/KI (kirr/KI) / kobs /[I]* (approximate second-order inactivation constant): 25° C., pH 6.2; for kobs /[I]* (approximate second-order inactivation constant): values marked *
T3 construct: Cathepsin B from human placenta, obtained from Sigma; purchased Sigma; host or cells: human placenta (tissue)
In short: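 Human placental enzyme (~10 nM) in 50 mM phosphate pH 6.2 with 2.5 mM DTT and 2.5 mM EDTA, 50 μM Z-Arg-Arg-AMC, inhibitors 30-0.001 μM, 25° C. AMC fluorescence (ex 380/em 460 nm) progress curves fitted for kobs; kobs/[I] reported, with kirr, KI and kirr/KI substrate-corrected for selected compounds.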

[9] = system: P. carinii; test: Growth of P. carinii in vitro; format: cell-based; details: 10 mM each
Protocol: Mu-Leu-HphVSPh and Mu-Phe-LysVSPh.HBr were evaluated for their effects on the growth of P. carinii in vitro, according to the procedure of M. S. Bartlett et al. [Antimicrotubule Benzimidazoles Inhibit In Vitro Growth of P. carinii, M. S. Bartlett, T. D. Edlind, M. M. Durkin, M. M. Shaw, S. F. Queener, and J. W. Smith, (1992) Antimicrobial Agents and Chemotherapy, 36, 779-782; Antimicrobial susceptibility of P. carinii in culture, M. S. Bartlett, R. Eichholtz, and J. W. Smith (1985) Diagn. Microbiol. Infect. Dis.; 3, 381-387. Mu-Leu-HphVSPh and Mu-Phe-LysVSPh.HBr (10 mM each) inhibited the growth of P. carinii 64% and 50% respectively.

[10] = system: calpain; test: Inhibition (inactivation) of calpain, Suc-Leu-Tyr-AMC; format: biochemical; details: values marked * (or %); pH 7.5, 5 mM CaCl2, 25° C.
Protocol: The inhibitors were tested against calpain at 1 or 2% as for the other enzymes. The reaction conditions were 50 mM Tris, pH 7.5, 5 mM CaCl2, 2.5 mM DTT, assayed at 25° C. The substrate was 100 μM Suc-Leu-Tyr-AMC.

[11] = system: T. cruzi; test: T. cruzi infected irradiated J774 cells; format: cell-based; set-up: dose or concentration left out as unconfirmed; details: thereafter without inhibitor; compounds listed in decreasing order of effectiveness
Protocol: Irradiated J774 cells were infected with T. cruzi and simultaneously treated with […] of peptidyl vinyl derivatives for 5 days; thereafter without inhibitor. The following compounds were effective in decreasing order: Mu-Phe-ArgVSPh, Boc-Tyr(I2)-HphVSPh, Mu-Phe-VaIVSPh, Boc-Tic-HphVSPh, Mu-Phe-Ser(OBzl)VSPh, Mu-Leu-HphVSPh, Mu-Tyr(I2)-HphVSPh, Mu-Phe-LysVSPh, Mu-Tic-HphVSPh.

[12] = system: U251MGn; test: Matrigel barrier migration assay, U251MGn; format: cell-based, human; set-up: dose or concentration left out as unconfirmed
Protocol: (§2) Two permanent human glioma cell lines (U87MG and U251MGn) and a well characterized low passage primary culture derived from a CB-positive glioblastoma (HF66) were used to assess the migratory behavior in the Matrigel barrier migration assay in the presence of graded concentrations of four compounds.
(§3) Using the Matrigel assay, Mu-Leu-HphVSPh, Mu-Tyr-HphVSPh, Mu-Phe-HphVSPh, and Mu-Tyr(I2)-HphVSPh (all at 10 mM) inhibited U251MGn by 67, 56, 29, & 20% respectively, while the U87MG cells were inhibited 53, 75, 63, & 56% respectively. The primary culture HF66 cells were inhibited only 10% by these compounds at the same concentration.

[13] = system: U87MG; test: Matrigel barrier migration assay, U87MG; format: cell-based, human; set-up: dose or concentration left out as unconfirmed
Protocol: as §2, §3

cruzain, from T. cruzi, sequence (P25779 123-337 limits assumed): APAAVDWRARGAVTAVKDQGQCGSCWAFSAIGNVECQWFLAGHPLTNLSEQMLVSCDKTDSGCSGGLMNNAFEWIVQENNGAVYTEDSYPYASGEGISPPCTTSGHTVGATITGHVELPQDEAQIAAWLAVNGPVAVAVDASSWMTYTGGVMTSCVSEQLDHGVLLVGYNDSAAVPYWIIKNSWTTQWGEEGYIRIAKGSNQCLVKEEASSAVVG
T2 sequence (P07154 114-288 limits assumed): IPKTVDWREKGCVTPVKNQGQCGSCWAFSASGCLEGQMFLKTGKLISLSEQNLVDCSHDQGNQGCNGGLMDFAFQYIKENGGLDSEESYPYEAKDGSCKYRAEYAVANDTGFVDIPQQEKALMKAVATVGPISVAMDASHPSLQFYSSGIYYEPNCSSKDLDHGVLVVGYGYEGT
T2 sequence (P07154 291-334 limits assumed): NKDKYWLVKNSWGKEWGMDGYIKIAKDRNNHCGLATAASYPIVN
T1 sequence (P25774 115-331): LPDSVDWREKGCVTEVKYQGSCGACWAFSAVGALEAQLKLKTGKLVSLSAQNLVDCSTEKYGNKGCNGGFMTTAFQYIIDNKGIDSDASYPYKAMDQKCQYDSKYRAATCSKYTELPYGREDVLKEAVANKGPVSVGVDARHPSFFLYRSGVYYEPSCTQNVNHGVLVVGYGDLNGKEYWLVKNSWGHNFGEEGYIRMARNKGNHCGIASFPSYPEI

C[C@H](NC(=O)OC(C)(C)C)C(=O)N[C@H](/C=C/S(=O)(=O)c1ccccc1)Cc1ccccc1 [Boc-Ala-PheVSPh]
binding to chymotrypsin ([1]; 100 mM TRIS buffer at pH=7.5): did not bind
inactivation of chymotrypsin ([1]; pH=7.5, after 1 hour): nor did it inactivate

CS(=O)(=O)/C=C/[C@H](CCc1ccccc1)NC(=O)[C@H](Cc1ccccc1)NC(=O)N1CCOCC1 [Mu-Phe-HphVSMe, (S)-(E)-5-(4-morpholinecarbonylphenylalanyl)amino-7-phenyl-2-thia-3-heptene 2,2-dioxide]
kobs /[I]* (approximate second-order inactivation constant) [2]: 22,000 M^-1 sec^-1
IC50 ([3]; cells printed in μM): 1 µM
IC50 ([4]; cells printed in μM): 1 µM
kirr [5]: 0.10 s⁻¹
Ki ([5]; corrected for substrate): 88 nM
reaction with GSH ([6]; after 24 hours, pH=6.2, 15% DMF, 20° C.): no measurable reaction
kobs /[I]* (approximate second-order inactivation constant) ([7]; 25° C., pH 6.2): 8700 M⁻¹ s⁻¹
kirr [8]: 0.13 s⁻¹
Ki [8]: 26000 nM
k/KI (kirr/KI) [8]: 5100 M⁻¹ s⁻¹

Br.NCCCC[C@@H](/C=C/S(=O)(=O)c1ccccc1)NC(=O)[C@H](Cc1ccccc1)NC(=O)N1CCOCC1 [Mu-Phe-LysVSPh.HBr, (G)-(E)-7-amino-3-(4-morpholinecarbonylphenylalanyl)amino-1-phenylsulfonyl-1-heptene hydrobromide]
kobs /[I]* (approximate second-order inactivation constant) [2]: 149,000 M^-1 sec^-1
inhibition of the growth of P. carinii [9]: 50%
IC50 ([3]; cells printed in nM): 0.1 µM
IC50 ([4]; cells printed in nM): 0.06 µM
kobs /[I]* [10]: < 50 M⁻¹ s⁻¹
kobs /[I]* (approximate second-order inactivation constant) [5]: 10,700,000 M^-1 sec^-1
second order rate constant for the loss of GSH ([6]; pH=6.2, 20° C.): 0.00055 M⁻¹ s⁻¹
kirr [7]: 0.16 s⁻¹
Ki ([7]; corrected for substrate): 1400 nM
kobs /[I]* (approximate second-order inactivation constant) ([7]; 25° C., pH 6.2): 220,000 M^-1 sec^-1
k/KI (kirr/KI) ([7]; values without asterisk, 25° C., pH 6.2): 110,000 M^-1 sec^-1
kobs /[I]* (approximate second-order inactivation constant) [8]: 11,300 M^-1 sec^-1
k/KI (kirr/KI) [8]: 11,700 M^-1 sec^-1
effectiveness against T. cruzi in J774 cells [11]: effective

O=C(N[C@H](/C=C/S(=O)(=O)c1ccccc1)CCc1ccccc1)C(Cc1cc(I)c(O)c(I)c1)NC(=O)N1CCOCC1 (stereo partly drawn) [Mu-Tyr(I2)-HphVSPh, (S)-(E)-3-[4-morpholinecarbonyl-(3,5-diiodotyrosyl)]-amino-5-phenyl-1-phenylsulfonyl-1-pentene]
kobs /[I]* (approximate second-order inactivation constant) [2]: 114,000 M^-1 sec^-1
kobs /[I]* (approximate second-order inactivation constant) [5]: > 7,300,000 M^-1 sec^-1
inhibition of U251MGn migration [12]: 20%
kobs /[I]* (approximate second-order inactivation constant) ([7]; 25° C., pH 6.2): 190,000 M^-1 sec^-1
kirr [8]: 0.18 s⁻¹
Ki [8]: 4700 nM
k/KI (kirr/KI) [8]: 39,200 M^-1 sec^-1
effectiveness against T. cruzi in J774 cells [11]: effective
inhibition of U87MG migration [13]: 56%

(S)-(E)-3-(4-morpholinecarbonyltyrosyl)amino-5-phenyl-1-phenylsulfonyl-1-pentene [Mu-Tyr-HphVSPh]
kobs /[I]* (approximate second-order inactivation constant) [2]: 297,000 M^-1 sec^-1
kobs /[I]* (approximate second-order inactivation constant) [5]: 4,200,000 M^-1 sec^-1
inhibition of U251MGn migration [12]: 56%
kobs /[I]* (approximate second-order inactivation constant) ([7]; 25° C., pH 6.2): 700,000 M^-1 sec^-1
kobs /[I]* (approximate second-order inactivation constant) [8]: 20,000 M^-1 sec^-1
inhibition of U87MG migration [13]: 75%
